Assays:
[1] = dispersion contacted on a film of APTES
[2] = Insolubility of the deposit in water in the Petri dish (Example 3); details: general statement in the description

Molecule	flocculation of the dispersion [1]	water solubility of the material resulting from condensation [2]
Zinc Pyrithione	almost immediate flocculation	–
CCO[Si](CCCN)(OCC)OCC [APTES, γ-aminopropyl triethoxysilane]	–	high water solubility
